{"source": "patent US10085966B2", "about": "“Compositions and methods for skin care” (Antipodean Pharmaceuticals, Inc., priority 2008, dated 2018)", "assay_type_in_all_cases": "cell-based", "key": {"[1]": {"test_system": "matrix metalloproteinase-1 (MMP1)", "assay": "MMP1 expression by human skin fibroblasts in collagenase-fragmented three-dimensional collagen lattices", "details": "1 nM, relative to controls (FIG. 3)", "text": "(§1) In photoaged human skin in vivo, skin wrinkling was accompanied by elevated collagenase levels that stimulated collagen fragmentation and ROS production. This Example describes an in vitro model of skin collagen fragmentation that was created and tested for the effects of antioxidant compounds. Materials and methods for preparing three-dimensional extracellular matrix (ECM) collagen lattices, for culturing skin fibroblasts and keratinocytes thereupon, and for treating such matrices with, and characterizing the effects on them of, matrix metalloproteinases (MMPs) have been described (see, e.g., Pilcher et al., 1997 J. Cell Biol. 137:1445; Notary et al., 2000 J. Cell Biol. 149:1309; Netzel-Arnett et al., 2002 J. Biol. Chem. 277:45154; Fisher et al., 2002 Arch Dermatol. 138:1462; Kang et al., 2003 J. Invest. Dermatol. 120:835; Xu et al., 2006 Am J Pathol. 169:823; Xu et al., 2006 J Biol. Chem 281:27389).\n(§2) Human skin fibroblasts were cultured in three-dimensional collagen lattices, which mimicked the dermal extracellular matrix. In intact collagen lattices, dermal fibroblasts spread by attachment to the collagen, and produced relatively low levels of the collagenase known as matrix metalloproteinase-1 (MMP1). […]"}, "human skin fibroblasts": {"test_system": "human skin fibroblasts", "assay": "ROS production by human skin fibroblasts in collagenase-fragmented three-dimensional collagen lattices", "details": "1 nM, relative to controls (FIG. 2)", "text": "as §1, §2"}, "ERK2": {"test_system": "ERK2", "assay": "UV irradiation-induced ERK2 phosphorylation in cultured human keratinocytes", "text": "(§3) Ultraviolet (UV) irradiation causes skin photoaging and has been reported to activate mitogen-activated protein (MAP) kinase signal transduction pathways. (Fisher et al., 1998 J. Clin. Invest. 101:1432; Kang et al., 2003 J. Invest. Dermatol. 120:835). The mechanism of UV activation of the epidermal growth factor receptor (EGFR) in such pathways remains unknown, although a role for ROS has been implicated (Xu et al., 2006 Am. J. Pathol. 169:823; Xu et al., 2006 J. Biol. Chem. 281:27389). This Example describes an in vitro model of UV-induced signal transduction in human keratinocytes. Publications describing exemplary materials and methods that were adapted to perform these experiments include e.g., Pilcher et al., 1997 J. Cell Biol. 137:1445; Notary et al., 2000 J. Cell Biol. 149:1309; Netzel-Arnett et al., 2002 J. Biol. Chem. 277:45154; Fisher et al., 2002 Arch Dermatol. 138:1462; Kang et al., 2003 J. Invest. Dermatol. 120:835; Xu et al., 2006 Am J Pathol. 169:823; Xu et al., 2006 J Biol. Chem 281:27389.\n(§4) Exposure of cultured human keratinocytes to UV irradiation activated ERK MAP kinase, as evidenced by elevated levels of phosphorylated ERK polypeptide in immunoprecipitates from UV-irradiated keratinocytes relative to untreated control keratinocytes. (FIG. 4)"}, "ERK1": {"test_system": "ERK1", "assay": "UV irradiation-induced ERK1 phosphorylation in cultured human keratinocytes", "text": "as §3, §4"}, "ERK MAP kinase": {"test_system": "ERK MAP kinase", "assay": "UV irradiation-induced activation of ERK MAP kinase in cultured human keratinocytes", "details": "pretreatment of keratinocytes with the indicated concentrations (FIG. 4)", "text": "as §3, §4"}, "[2]": {"details": "exposure to MitoQ10 (FIG. 4 lower panel)"}, "[3]": {"details": "incubation of keratinocytes prior to UV irradiation (FIG. 4 upper panel)"}}}
{"molecule": "COC1=C(OC)C(=O)C(CCCCCCCCCC[P+](c2ccccc2)(c2ccccc2)c2ccccc2)=C(C)C1=O.CS(=O)(=O)[O-]", "note": "[MitoQ10 mesylate, [10-(4,5-dimethoxy-2-methyl-3,6-dioxo-1,4-cyclohexadien-1-yl)decyl] triphenylphosphonium methanesulfonate]", "values": [{"measurement": "matrix metalloproteinase-1 expression, MMP1 mRNA", "setting": "[1]", "value": "significantly reduced"}, {"measurement": "matrix metalloproteinase-1 expression, MMP1 protein", "setting": "[1]", "value": "significantly reduced"}, {"measurement": "oxidant (ROS) levels", "setting": "human skin fibroblasts", "value": "significantly reduced"}, {"measurement": "amount of Erk2 in the keratinocytes", "setting": "ERK2; [2]", "value": "not altered"}, {"measurement": "ERK2 phosphorylation", "setting": "ERK2; [3]", "value": "significantly reduced"}, {"measurement": "amount of Erk1 in the keratinocytes", "setting": "ERK1; [2]", "value": "not altered"}, {"measurement": "ERK1 phosphorylation", "setting": "ERK1; [3]", "value": "significantly reduced"}, {"measurement": "activation of ERK MAP kinase by subsequent UV irradiation", "setting": "ERK MAP kinase", "value": "substantially inhibited"}]}
